Measured values as given in patent US11518739B2, “Sulfonamide carboxamide compounds” (Inflazome Limited, priority 2017, dated 2022).
Structures can show the parent of a compound that is named as a salt.

Tests used:
NLRP3 [1] = target: T1, NLRP3 (Homo sapiens, UniProt Q96P20); experiment: THP-1 cells pyroptosis assay (LPS-primed, nigericin-triggered, resazurin readout); format: cell-based; set-up: Seed THP-1 cells (25,000 cells/well) containing 1.0 μg/ml LPS in 40 μl of RPMI medium; host or cells: THP-1 cells, LPS-primed, nigericin-triggered; conditions: NLRP3 inhibitory activity in THP-1 cells, 1.0 μg/ml LPS, 5 μM nigericin
Experimental: THP-1 cells (ATCC #TIB-202) were grown in RPMI containing L-glutamine (Gibco #11835) supplemented with ImM sodium pyruvate (Sigma #S8636) and penicillin (100 units/ml)/streptomycin (0.1 mg/ml) (Sigma #P4333) in 10% Fetal Bovine Serum (FBS) (Sigma #F0804). The cells were routinely passaged and grown to confluency ([…]). On the day of the experiment, THP-1 cells were harvested and resuspended into RPMI medium (without FBS). The cells were then counted and viability (>90%) checked by Trypan blue (Sigma #T8154). Appropriate dilutions were made to give a concentration of 625,000 cells/ml. To this diluted cell solution was added LPS (Sigma #L4524) to give a 1 μg/ml Final Assay Concentration (FAC). […] of the final preparation was aliquoted into each well of a 96-well plate. The plate thus prepared was used for compound screening.
The following method step-by-step assay was followed for compound screening. • 1. Seed THP-1 cells (25,000 cells/well) containing 1.0 μg/ml LPS in 40 μl of RPMI medium (without FBS) in 96-well, black walled, clear bottom cell culture plates coated with poly-D-lysine (VWR #734-0317) • 2. Add 5 μl compound (8 points half-log dilution, with 10 μM top dose) or vehicle (DMSO 0.1% FAC) to the appropriate wells • 3. Incubate for 3 hrs at 37° C. in 5% CO2 • 4. Add 5 μl nigericin (Sigma #N7143) (FAC 5 μM) to all wells • 5. Incubate for 1 hr at 37° C. and 5% CO2 • 6. At the end of the incubation period, spin plates at 300×g for 3 mins and remove supernatant • 7. Then add 50 μl of resazurin (Sigma #R7017) (FAC 100 μM resazurin in RPMI medium without FBS) and incubate plates for a further 1-2 hrs at 37° C. and 5% CO2 • 8. Plates were read in an Envision reader at Ex 560 nm and Em 590 nm • 9. IC50 data is fitted to a non-linear regression equation (log inhibitor vs response-variable slope 4-parameters)

NLRP3 [2] = target: T1, NLRP3; experiment: Human whole blood IL-1β release assay (LPS + nigericin, AlphaLisa); format: cell-based; set-up: Plate out 80 μl of whole blood containing 1 μg/ml of LPS in 96-well, clear bottom cell culture plate; from tissue; host or cells: human whole blood from healthy donors (Li-heparin); conditions: NLRP3 inhibitory activity in human whole blood, 1 μg/ml LPS, 10 μM nigericin, read-out: HWB IC50
Experimental: For systemic delivery, the ability to inhibit NLRP3 when the compounds are present within the bloodstream is of great importance. For this reason, the NLRP3 inhibitory activity of a number of compounds in human whole blood was investigated in accordance with the following protocol.
Human whole blood in Li-heparin tubes was obtained from healthy donors from a volunteer donor panel. • 1. Plate out 80 μl of whole blood containing 1 μg/ml of LPS in 96-well, clear bottom cell culture plate (Corning #3585) • 2. Add 10 μl compound (8 points half-log dilution with 10 μM top dose) or vehicle (DMSO 0.1% FAC) to the appropriate wells • 3. Incubate for 3 hrs at 37° C., 5% CO2 • 4. Add 10 μl nigericin (Sigma #N7143) (10 μM FAC) to all wells • 5. Incubate for 1 hr at 37° C., 5% CO2 • 6. At the end of the incubation period, spin plates at 300×g for 5 mins to pellet cells and remove 20 μl of supernatant and add to 96-well v-bottom plates for IL-1β analysis (note: these plates containing the supernatants can be stored at −80° C. to be analysed at a later date) • 7. IL-1β was measured according to the manufacturer protocol (Perkin Elmer-AlphaLisa IL-1 Kit AL220F-5000) • 8. IC50 data is fitted to a non-linear regression equation (log inhibitor vs response-variable slope 4-parameters)

T1 sequence (Q96P20 whole entry): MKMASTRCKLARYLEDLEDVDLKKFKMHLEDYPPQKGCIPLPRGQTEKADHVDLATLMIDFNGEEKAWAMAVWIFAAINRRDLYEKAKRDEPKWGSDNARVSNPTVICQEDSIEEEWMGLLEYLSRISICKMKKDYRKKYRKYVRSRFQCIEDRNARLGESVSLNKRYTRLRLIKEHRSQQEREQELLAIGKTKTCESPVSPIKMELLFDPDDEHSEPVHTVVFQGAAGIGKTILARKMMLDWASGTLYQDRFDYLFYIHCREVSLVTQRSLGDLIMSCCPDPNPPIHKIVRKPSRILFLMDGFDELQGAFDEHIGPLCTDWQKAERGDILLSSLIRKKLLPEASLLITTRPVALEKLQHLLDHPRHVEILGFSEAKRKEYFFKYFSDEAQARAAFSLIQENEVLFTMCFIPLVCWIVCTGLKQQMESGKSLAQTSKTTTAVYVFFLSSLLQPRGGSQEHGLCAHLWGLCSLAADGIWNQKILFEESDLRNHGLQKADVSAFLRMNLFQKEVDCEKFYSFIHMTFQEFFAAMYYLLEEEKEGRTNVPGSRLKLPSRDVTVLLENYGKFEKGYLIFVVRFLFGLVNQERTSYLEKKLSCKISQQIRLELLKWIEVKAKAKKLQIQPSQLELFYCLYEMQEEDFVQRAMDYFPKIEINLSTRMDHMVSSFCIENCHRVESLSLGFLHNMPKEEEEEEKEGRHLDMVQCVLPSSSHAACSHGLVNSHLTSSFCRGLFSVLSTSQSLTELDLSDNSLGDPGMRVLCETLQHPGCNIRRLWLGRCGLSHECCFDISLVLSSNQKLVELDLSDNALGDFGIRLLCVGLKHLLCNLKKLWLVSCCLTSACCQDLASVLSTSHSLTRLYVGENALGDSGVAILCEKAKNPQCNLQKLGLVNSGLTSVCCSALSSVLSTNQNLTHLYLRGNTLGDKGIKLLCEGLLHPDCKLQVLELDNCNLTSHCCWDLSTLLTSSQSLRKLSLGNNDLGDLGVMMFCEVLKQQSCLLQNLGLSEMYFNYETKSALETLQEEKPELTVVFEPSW

Row | SMILES | IC50 (NLRP3 [1]) | IC50 (NLRP3 [2])
1 | O=C(Nc1c2c(cc3c1CCC3)CCC2)NS(=O)(=O)Cc1cc(Cl)cc(Cl)c1 [Example 4, 1-(3,5-Dichlorophenyl)-N-((1,2,3,5,6,7-hexahydro-s-indacen-4-yl)carbamoyl)methanesulfonamide, Sodium Salt] | ≤ 1 µM | > 10 µM
2 | O=C(Nc1c2c(cc3c1CCC3)CCC2)NS(=O)(=O)Cc1ccc(Cl)cc1 [Example 5, 1-(4-Chlorophenyl)-N-((1,2,3,5,6,7-hexahydro-s-indacen-4-yl)carbamoyl)methanesulfonamide, Sodium Salt] | ≤ 1 µM | 5 to 7.5 µM
3 | O=C(Nc1c2c(cc3c1CCC3)CCC2)NS(=O)(=O)Cc1ccc(Cl)c(Cl)c1 [Example 6, 1-(3,4-Dichlorophenyl)-N-((1,2,3,5,6,7-hexahydro-s-indacen-4-yl)carbamoyl)methanesulfonamide, Sodium Salt] | ≤ 1 µM | > 10 µM
4 | N#Cc1ccc(CS(=O)(=O)NC(=O)Nc2c3c(cc4c2CCC4)CCC3)cc1 [Example 8, 1-(4-Cyanophenyl)-N-((1,2,3,5,6,7-hexahydro-s-indacen-4-yl)carbamoyl)methanesulfonamide, Sodium Salt] | ≤ 1 µM | ≤ 5 µM
5 | COC(=O)c1ccc(CS(=O)(=O)NC(=O)Nc2c3c(cc4c2CCC4)CCC3)cc1 [Example 9, Methyl 4-((N-((1,2,3,5,6,7-hexahydro-s-indacen-4-yl)carbamoyl)sulfamoyl)methyl)benzoate, Sodium Salt] | ≤ 1 µM | ≤ 5 µM
6 | O=C(Nc1c2c(cc3c1CCC3)CCC2)NS(=O)(=O)Cc1ccc(C(F)(F)F)cc1 [Example 10, N-((1,2,3,5,6,7-Hexahydro-s-indacen-4-yl)carbamoyl)-1-(4-(trifluoromethyl)phenyl)methanesulfonamide, Sodium Salt] | ≤ 1 µM | 5 to 7.5 µM
7 | COc1cccc(CS(=O)(=O)NC(=O)Nc2c3c(cc4c2CCC4)CCC3)c1 [Example 11, N-((1,2,3,5,6,7-Hexahydro-s-indacen-4-yl)carbamoyl)-1-(3-methoxyphenyl)methanesulfonamide, Sodium Salt] | ≤ 1 µM | 7.5 to 10 µM
8 | O=C(Nc1c2c(cc3c1CCC3)CCC2)NS(=O)(=O)Cc1ccc(Cl)cc1F [Example 12, 1-(4-Chloro-2-fluorophenyl)-N-((1,2,3,5,6,7-hexahydro-s-indacen-4-yl)carbamoyl)methanesulfonamide, Sodium Salt] | ≤ 1 µM | > 10 µM
9 | O=C(Nc1c2c(cc3c1CCC3)CCC2)NS(=O)(=O)Cc1ccc(Cl)c(F)c1 [Example 13, 1-(4-Chloro-3-fluorophenyl)-N-((1,2,3,5,6,7-hexahydro-s-indacen-4-yl)carbamoyl)methanesulfonamide, Sodium Salt] | ≤ 1 µM | > 10 µM
10 | O=C(Nc1c2c(cc3c1CCC3)CCC2)NS(=O)(=O)Cc1ccccc1C(F)(F)F [Example 16, N-((1,2,3,5,6,7-Hexahydro-s-indacen-4-yl)carbamoyl)-1-(2-(trifluoromethyl)phenyl)methanesulfonamide, Sodium Salt] | ≤ 1 µM | –
11 | COC(=O)c1ccccc1CS(=O)(=O)NC(=O)Nc1c2c(cc3c1CCC3)CCC2 [Example 18, Methyl 2-((N-((1,2,3,5,6,7-hexahydro-s-indacen-4-yl)carbamoyl)sulfamoyl)methyl)benzoate] | ≤ 1 µM | –
12 | O=C(Nc1c(-c2ccncc2)cc(F)c2c1CCC2)NS(=O)(=O)Cc1ccccc1 [Example 25, N-((7-Fluoro-5-(pyridin-4-yl)-2,3-dihydro-1H-inden-4-yl)carbamoyl)-1-phenylmethanesulfonamide] | 2 to 10 µM | –
13 | O=C(Nc1c(-c2ccncc2)cc(F)c2c1CCC2)NS(=O)(=O)CCc1ccccc1 [Example 33, N-((7-Fluoro-5-(pyridin-4-yl)-2,3-dihydro-1H-inden-4-yl)carbamoyl)-2-phenylethanesulfonamide] | – | 5 to 7.5 µM
14 | CC(C)c1cc(F)cc(-c2ccnc(C#N)c2)c1NC(=O)NS(=O)(=O)C(C)c1ccccc1 (stereo not shown) [Example 34, N-((2-(2-Cyanopyridin-4-yl)-4-fluoro-6-isopropylphenyl)carbamoyl)-1-phenylethanesulfonamide] | 2 to 10 µM | –

The next lines start with the values.

Row | IC50 (NLRP3 [1]) | IC50 (NLRP3 [2]) | SMILES
15 | ≤ 1 µM | ≤ 5 µM | O=C(Nc1c2c(cc3c1CCC3)CCC2)NS(=O)(=O)Cc1ccccc1 [Example 1, N-((1,2,3,5,6,7-Hexahydro-s-indacen-4-yl)carbamoyl)-1-phenyl Methanesulfonamide, Potassium Salt]
16 | ≤ 1 µM | – | CC(C)CS(=O)(=O)NC(=O)Nc1c2c(cc3c1CCC3)CCC2 [Example 2, N-((1,2,3,5,6,7-Hexahydro-s-indacen-4-yl)carbamoyl)-2-methylpropane-1-sulfonamide, Potassium Salt]
17 | ≤ 1 µM | ≤ 5 µM | C=CS(=O)(=O)NC(=O)Nc1c2c(cc3c1CCC3)CCC2 [Example 3, N-((1,2,3,5,6,7-Hexahydro-s-indacen-4-yl)carbamoyl)ethenesulfonamide]
18 | ≤ 1 µM | ≤ 5 µM | O=C(Nc1c2c(cc3c1CCC3)CCC2)NS(=O)(=O)Cc1ccc(F)cc1 [Example 7, 1-(4-Fluorophenyl)-N-((1,2,3,5,6,7-hexahydro-s-indacen-4-yl)carbamoyl)methanesulfonamide, Sodium Salt]
19 | ≤ 1 µM | 5 to 7.5 µM | Cc1ccc(CS(=O)(=O)NC(=O)Nc2c3c(cc4c2CCC4)CCC3)cc1 [Example 14, N-((1,2,3,5,6,7-Hexahydro-s-indacen-4-yl)carbamoyl)-1-(p-tolyl)methanesulfonamide, Sodium Salt]
20 | ≤ 1 µM | > 10 µM | O=C(Nc1c2c(cc3c1CCC3)CCC2)NS(=O)(=O)Cc1ccccc1Cl [Example 15, 1-(2-Chlorophenyl)-N-((1,2,3,5,6,7-hexahydro-s-indacen-4-yl)carbamoyl)methanesulfonamide, Sodium Salt]
21 | ≤ 1 µM | – | O=C(Nc1c2c(cc3c1CCC3)CCC2)NS(=O)(=O)Cc1ccccc1Br [Example 17, 1-(2-Bromophenyl)-N-((1,2,3,5,6,7-hexahydro-s-indacen-4-yl)carbamoyl)methanesulfonamide, Sodium Salt]
22 | ≤ 1 µM | > 10 µM | O=C(Nc1c2c(cc3c1CCC3)CCC2)NS(=O)(=O)Cc1cccc(Br)c1 [Example 19, 1-(3-Bromophenyl)-N-((1,2,3,5,6,7-hexahydro-s-indacen-4-yl)carbamoyl)methanesulfonamide, Sodium Salt]
23 | ≤ 1 µM | 5 to 7.5 µM | Cc1cccc(CS(=O)(=O)NC(=O)Nc2c3c(cc4c2CCC4)CCC3)c1 [Example 20, N-((1,2,3,5,6,7-Hexahydro-s-indacen-4-yl)carbamoyl)-1-(m-tolyl)methanesulfonamide, Sodium Salt]
24 | ≤ 1 µM | ≤ 5 µM | [N-]=[N+]=NCCCS(=O)(=O)NC(=O)Nc1c2c(cc3c1CCC3)CCC2 [Example 21, 3-Azido-N-((1,2,3,5,6,7-hexahydro-s-indacen-4-yl)carbamoyl) propane-1-sulfonamide, Potassium Salt]
25 | ≤ 1 µM | 7.5 to 10 µM | CC(c1ccccc1)S(=O)(=O)NC(=O)Nc1c2c(cc3c1CCC3)CCC2 (stereo not shown) [Example 39, N-((1,2,3,5,6,7-Hexahydro-s-indacen-4-yl)carbamoyl)-1-phenylethanesulfonamide]
